Results as given in patent US20220298135A1, “5-HETEROARYL-PYRIDIN-2-AMINE COMPOUNDS AS NEUROPEPTIDE FF RECEPTOR ANTAGONISTS” (Domain Therapeutics, priority 2019, published 2022).
Where a name gives a salt, the structure may show the parent alone.

Key:
[1] = biological target: T1, human NPFFR1 (hNPFFR1) receptor (Homo sapiens, UniProt Q9GZQ6); assay: Human NPFFR1 evaluation using BRET biosensors (antagonist IC50); type: cell-based; settings: hNPFFR1 transiently over-expressed in HEK-293 T cells; BRET signal; stimulation by EC80 RFRP-3
T1 construct: expressed in transfected cells; host or cells: HEK-293 T cells, transient co-transfection with polyethylenimine
Description: Compounds of the present invention were tested successively for their agonist and antagonist activities on human NPFFR1 (hNPFFR1) receptor transiently over-expressed in HEK-293 T cells. Compounds exert agonist activity if, by themselves in absence of neuropeptide RFRP-3 (also named NPVF) they activate hNPFFR1; and they exert antagonist activity if they decrease the action of RFRP-3 on the receptor.
The assay used to measure compound activity is based on BRET (Bioluminescence Resonance Energy Transfer) biosensors and is designed to monitor the plasma membrane translocation of protein that interacts with specific Ga subunit. The specific effector (luciferase tagged: BRET donor) recruited at the membrane will be in close proximity to a plasma membrane anchor (GFP tagged: BRET acceptor) to induce a BRET signal. Biosensors are described in the patent application WO 2016/041093 A1 (Biosensors for monitoring biomolecule localization and trafficking in cells).
HEK-293 T cells are maintained in Dulbecco's Modified Eagle's Medium supplemented with 10% Foetal Calf Serum, 1% Penicillin/Streptomycin at 37° C./5% CO2.
Cells are co-transfected using polyethylenimine (25 kDa linear) with four DNA plasmids encoding: hNPFFR1, GαoB, a Gi family specific intracellular effector fused to luciferase (BRET donor), a plasma membrane effector fused to GFP (BRET acceptor). After transfection, cells are cultured for 48 h at 37° C./5% CO2.
Receptor activity is detected by changes in BRET signal.
On the day of the assay, cells are detached using trypsin 0.05%, resuspended in assay buffer (1.8 mM CaCl2, 1 mM MgCl2, 2.7 mM KCl, 137 mM NaCl, 0.4 mM NaH2PO4, 5.5 mM D-Glucose, 11.9 mM NaHCO3, 25 mM Hepes) and seeded in 384 well plate at a density of 20,000 cells per well. Then, plates are equilibrated 3.5 hours at 37° C. before adding compounds.
Compounds and luciferase substrate are added to the cells using an automated device (Freedom Evo®, Tecan) and BRET readings are collected on EnVision (PerkinElmer) with specific filters (410 nm BW 80 nm, 515 nm BW 30 nm).
Agonist and antagonist activities of compounds are consecutively evaluated on the same cell plate. Agonist activity is first measured after 10 minutes incubation with compound alone on the cells. Then, cells are stimulated by an EC80 RFRP-3 concentration and luminescence is recorded for additional 10 minutes. EC80 RFRP-3 concentration is the concentration giving 80% of the maximal RFRP-3 response. Agonist or antagonist activities are evaluated in comparison to basal signals evoked by assay buffer or EC80 RFRP-3 alone, respectively.
For IC50 determination, a dose-response test is performed using 20 concentrations (ranging over 6 logs) of each compound. Dose-response curves are fitted using the sigmoidal dose-response (variable slope) analysis in GraphPad Prism software (GraphPad Software) and IC50 of antagonist activity is calculated. Dose-response experiments are performed in duplicate, in two independent experiments.

T1 sequence (Q9GZQ6 whole entry): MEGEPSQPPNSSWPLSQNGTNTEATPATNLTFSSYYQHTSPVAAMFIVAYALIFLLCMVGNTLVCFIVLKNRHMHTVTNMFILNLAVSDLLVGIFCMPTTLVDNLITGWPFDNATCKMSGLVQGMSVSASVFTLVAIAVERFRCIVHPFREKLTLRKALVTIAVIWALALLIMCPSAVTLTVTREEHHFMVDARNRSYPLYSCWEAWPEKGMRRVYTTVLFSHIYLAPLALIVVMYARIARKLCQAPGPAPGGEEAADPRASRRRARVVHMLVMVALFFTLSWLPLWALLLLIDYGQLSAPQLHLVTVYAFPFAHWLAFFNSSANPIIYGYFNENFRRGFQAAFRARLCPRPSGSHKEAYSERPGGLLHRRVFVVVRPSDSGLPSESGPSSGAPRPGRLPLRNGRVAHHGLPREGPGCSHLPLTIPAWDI

SMILES	IC50 [1] [nM]	melting point [°C]
CCc1nc(N)ccc1-c1cccc2c1N(C)CCC2.Cl [Example 165, 6-ethyl-5-(1-methyl-1,2,3,4-tetrahydroquinolin-8-yl)pyridin-2-amine]	100 to 1000	155 to 165
Cl.Nc1ccc(-c2csc3ccccc23)c(C2CC2)n1 [Example 13, 5-Benzo[b]thiophen-3-yl-6-cyclopropyl-pyridin-2-ylamine]	100 to 1000	210 to 220
CCc1nc(N)ccc1-c1cccc2nccn12.Cl [Example 103, 6-ethyl-5-(imidazo[1,2-a]pyridin-5-yl)pyridin-2-amine]	> 1000	115 to 155
Nc1ccc(-c2csc3ccc(F)cc23)c(N)n1 [Example 22, 3-(5-Fluoro-benzo[b]thiophen-3-yl)pyridine-2,6-diamine]	100 to 1000	116 to 118
CCc1nc(N)ccc1-c1csc2ccccc12 [Example 4, 5-Benzo[b]thiophen-3-yl-6-ethyl-pyridin-2-ylamine]	100 to 1000	108 to 120
CCc1nc(N)ccc1-c1c(C)sc2ccccc12.Cl [Example 41, 6-Ethyl-5-(2-methylbenzothiophen-3-yl)pyridin-2-amine]	100 to 1000	70 to 72
CCc1nc(N)ccc1-c1cccc2ccc(C(=O)N(C)C)nc12 [Example 140, 8-(6-amino-2-ethylpyridin-3-yl)-N,N-dimethylquinoline-2-carboxamide]	100 to 1000	–
CCc1nc(N)ccc1-c1cccc2sccc12 [Example 78, 5-(benzo[b]thiophen-4-yl)-6-ethylpyridin-2-amine]	100 to 1000	–
CCc1nc(N)ccc1-c1c(F)ccc2ccc(N(CC)C3CCCCC3)nc12.Cl	–	160 to 210
CCc1nc(N)ccc1-c1c(C#N)ccc2cccnc12 [Example 153, 8-(6-amino-2-ethylpyridin-3-yl)quinoline-7-carbonitrile]	100 to 1000	–
CCc1nc(N)ccc1-c1c(Cl)ccc2cc(F)cnc12 [Example 144, 5-(7-chloro-3-fluoroquinolin-8-yl)-6-ethylpyridin-2-amine]	< 100	–
CCc1nc(N)ccc1-c1cccc2ccc(-c3ccccc3)nc12 [Example 116, 6-ethyl-5-(2-phenylquinolin-8-yl)pyridin-2-amine]	< 100	–
Nc1ccc(-c2cccc3cccnc23)c(N)n1 [Example 31, 3-(8-quinolyl)pyridine-2,6-diamine]	< 100	–
CCc1nc(N)ccc1-c1cccc2ccoc12 [Example 79, 5-(benzofuran-7-yl)-6-ethylpyridin-2-amine]	100 to 1000	–
CCc1nc(N)ccc1-c1cccc2ccc(C(=O)NC3COC3)nc12 [Example 175, 8-(6-amino-2-ethylpyridin-3-yl)-N-(oxetan-3-yl)quinoline-2-carboxamide]	–	156 to 162
Nc1ccc(-c2c(F)ccc3cc(Cl)cnc23)c(N)n1 [Example 60, 3-(3-chloro-7-fluoroquinolin-8-yl)pyridine-2,6-diamine]	< 100	–
CCc1nc(N)ccc1-c1c(F)ccc2ccc(N(CC)C(C)C)nc12.Cl	–	214 to 229
CCc1nc(N)ccc1-c1cccc2ccc(OCCN3CCOCC3)nc12 [Example 130, 6-ethyl-5-(2-(2-morpholinoethoxy)quinolin-8-yl)pyridin-2-amine]	100 to 1000	–
CCc1nc(N)ccc1-c1cccc2c1N(C)C(=O)CC2 [Example 157, 8-(6-amino-2-ethylpyridin-3-yl)-1-methyl-3,4-dihydroquinolin-2(1H)-one]	> 1000	–
CCc1nc(N)ccc1-c1cccc2ccc(C(=O)N(C)C)nc12 (as salt: hydrochloride) [Example 140, 8-(6-amino-2-ethylpyridin-3-yl)-N,N-dimethylquinoline-2-carboxamide]	–	103 to 113

Now from value to compound:

IC50 [1] [nM]	melting point [°C]	SMILES
< 100	–	CCc1nc(N)ccc1-c1c(F)ccc2cc(Cl)cnc12 [Example 146, 5-(3-chloro-7-fluoroquinolin-8-yl)-6-ethylpyridin-2-amine]
< 100	150 to 190	CCc1nc(N)ccc1-c1c(F)c(F)cc2cccnc12.Cl [Example 111, 5-(6,7-difluoroquinolin-8-yl)-6-ethylpyridin-2-amine]
< 100	110 to 120	CCc1nc(N)ccc1-c1c(F)cc(F)c2cc(F)cnc12.Cl [Example 145, 6-ethyl-5-(3,5,7-trifluoroquinolin-8-yl)pyridin-2-amine]
< 100	120 to 140	CCc1nc(N)ccc1-c1ccc(F)c2cccnc12.Cl [Example 1, 6-ethyl-5-(5-fluoroquinolin-8-yl)pyridin-2-amine]
< 100	100 to 120	Cl.Nc1ccc(-c2cccc3sccc23)c(N)n1 [Example 51, 3-(benzo[b]thiophen-4-yl)pyridine-2,6-diamine]
< 100	180 to 192	CCc1nc(N)ccc1-c1cccc2c1OCCC2.Cl [Example 66, 5-(chroman-8-yl)-6-ethylpyridin-2-amine]
< 100	100 to 140	CC(C)Cc1nc(N)ccc1-c1cccc2cccnc12.Cl [Example 67, 6-isobutyl-5-(quinolin-8-yl)pyridin-2-amine]
< 100	137 to 142	CCc1nc(N)ccc1-c1cccc2ccc(C3CCCCC3)nc12.Cl [Example 118, 5-(2-cyclohexylquinolin-8-yl)-6-ethylpyridin-2-amine]
< 100	–	CCc1nc(N)ccc1-c1c(F)c(F)cc2cc(Cl)cnc12 [Example 149, 5-(3-chloro-6,7-difluoroquinolin-8-yl)-6-ethylpyridin-2-amine]
< 100	–	CCc1nc(N)ccc1-c1c(Cl)ccc2ccc(O)nc12 [Example 160, 8-(6-amino-2-ethylpyridin-3-yl)-7-chloroquinolin-2(1H)-one]
< 100	–	CCc1nc(N)ccc1-c1c(F)ccc2cc(Br)cnc12 [Example 151, 5-(3-bromo-7-fluoroquinolin-8-yl)-6-ethylpyridin-2-amine]
< 100	–	Nc1ccc(-c2c(Cl)ccc3ccc(O)nc23)c(N)n1 [Example 63, 8-(2,6-diaminopyridin-3-yl)-7-chloroquinolin-2-ol]
< 100	–	CCc1nc(N)ccc1-c1c(Cl)ccc2cccnc12 [Example 110, 5-(7-chloroquinolin-8-yl)-6-ethylpyridin-2-amine]
< 100	–	CCc1nc(N)ccc1-c1cccc2ccc(-c3cncnc3)nc12 [Example 124, 6-ethyl-5-(2-(pyrimidin-5-yl)quinolin-8-yl)pyridin-2-amine]
< 100	–	CCc1nc(N)ccc1-c1cccc2ccc(-c3cccnc3)nc12 [Example 117, 6-ethyl-5-(2-(pyridin-3-yl)quinolin-8-yl)pyridin-2-amine]
< 100	–	Nc1ccc(-c2c(F)cc(F)c3cccnc23)c(N)n1 [Example 59, 3-(5,7-difluoroquinolin-8-yl)pyridine-2,6-diamine]
< 100	–	CCc1nc(N)ccc1-c1c(Cl)ccc2cc(Cl)cnc12 [Example 147, 5-(3,7-dichloroquinolin-8-yl)-6-ethylpyridin-2-amine]
< 100	–	CCc1nc(N)ccc1-c1c(F)cc(F)c2cc(Cl)cnc12 [Example 148, 5-(3-chloro-5,7-difluoroquinolin-8-yl)-6-ethylpyridin-2-amine]
